Experiments:
[1] = molecular target: Tyrosine-protein kinase HCK (Homo sapiens) (UniProt P08631); assay: Inhibition of HCK (unknown origin) assessed as residual activity at 1000 nM by KINOMEscan analysis relative to control
[2] = molecular target: T1, Ankyrin repeat and protein kinase domain-containing protein 1 (Homo sapiens) (UniProt Q8NFD2); assay: Inhibition of ANKK1 (unknown origin) assessed as residual activity at 1000 nM by KINOMEscan analysis relative to control
T1 sequence (whole entry): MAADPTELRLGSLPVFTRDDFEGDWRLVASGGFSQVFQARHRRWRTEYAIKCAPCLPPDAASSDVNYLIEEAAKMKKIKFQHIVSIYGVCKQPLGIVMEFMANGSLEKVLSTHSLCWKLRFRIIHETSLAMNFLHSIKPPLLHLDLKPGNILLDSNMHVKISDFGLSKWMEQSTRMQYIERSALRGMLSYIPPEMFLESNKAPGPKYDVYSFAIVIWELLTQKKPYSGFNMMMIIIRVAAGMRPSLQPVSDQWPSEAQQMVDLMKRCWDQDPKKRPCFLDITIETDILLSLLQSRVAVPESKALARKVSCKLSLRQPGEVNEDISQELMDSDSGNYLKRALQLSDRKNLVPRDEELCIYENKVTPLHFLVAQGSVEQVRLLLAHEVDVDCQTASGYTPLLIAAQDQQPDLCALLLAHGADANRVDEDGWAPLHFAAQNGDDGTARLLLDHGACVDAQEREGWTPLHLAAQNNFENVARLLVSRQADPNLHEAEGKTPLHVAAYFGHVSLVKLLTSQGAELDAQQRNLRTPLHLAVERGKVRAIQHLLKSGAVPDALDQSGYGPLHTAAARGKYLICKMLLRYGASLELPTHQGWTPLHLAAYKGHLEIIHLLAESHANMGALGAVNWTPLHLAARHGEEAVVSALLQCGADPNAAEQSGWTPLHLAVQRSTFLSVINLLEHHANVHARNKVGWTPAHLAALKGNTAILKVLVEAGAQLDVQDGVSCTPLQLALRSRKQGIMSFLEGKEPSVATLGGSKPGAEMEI

[3] = molecular target: Wee1-like protein kinase (Homo sapiens) (UniProt P30291); assay: Inhibition of WEE1 (unknown origin) assessed as residual activity at 1000 nM by KINOMEscan analysis relative to control
[4] = molecular target: STE20-like serine/threonine-protein kinase (Homo sapiens) (UniProt Q9H2G2); assay: Inhibition of SLK (unknown origin) assessed as residual activity at 1000 nM by KINOMEscan analysis relative to control
[5] = molecular target: T2, MAP/microtubule affinity-regulating kinase 4 (Homo sapiens) (UniProt Q96L34); assay: Inhibition of MARK4 (unknown origin) assessed as residual activity at 1000 nM by KINOMEscan analysis relative to control
T2 sequence (whole entry): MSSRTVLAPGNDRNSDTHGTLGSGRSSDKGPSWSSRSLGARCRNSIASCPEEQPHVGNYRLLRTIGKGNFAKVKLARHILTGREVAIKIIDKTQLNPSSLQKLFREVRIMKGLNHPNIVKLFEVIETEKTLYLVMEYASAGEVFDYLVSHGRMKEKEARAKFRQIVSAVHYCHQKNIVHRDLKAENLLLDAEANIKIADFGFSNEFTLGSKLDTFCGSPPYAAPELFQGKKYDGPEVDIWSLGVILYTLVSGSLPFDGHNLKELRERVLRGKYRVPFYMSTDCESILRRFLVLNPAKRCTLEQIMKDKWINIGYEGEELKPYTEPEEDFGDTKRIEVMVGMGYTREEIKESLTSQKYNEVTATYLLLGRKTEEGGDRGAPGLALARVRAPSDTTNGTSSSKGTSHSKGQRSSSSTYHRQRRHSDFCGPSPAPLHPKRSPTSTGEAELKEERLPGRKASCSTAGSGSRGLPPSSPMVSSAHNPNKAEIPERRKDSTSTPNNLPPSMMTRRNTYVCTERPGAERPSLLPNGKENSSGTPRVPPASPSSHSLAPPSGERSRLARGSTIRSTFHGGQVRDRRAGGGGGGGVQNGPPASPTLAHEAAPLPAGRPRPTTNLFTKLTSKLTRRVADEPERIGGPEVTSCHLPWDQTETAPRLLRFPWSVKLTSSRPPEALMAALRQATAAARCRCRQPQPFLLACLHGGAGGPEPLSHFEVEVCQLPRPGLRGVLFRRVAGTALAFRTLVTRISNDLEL

[6] = molecular target: Protein kinase C theta type (Homo sapiens) (UniProt Q04759); assay: Inhibition of PRKCQ (unknown origin) assessed as residual activity at 1000 nM by KINOMEscan analysis relative to control
[7] = system: Phosphatidylinositol 4,5-bisphosphate 3-kinase catalytic subunit alpha isoform (Homo sapiens), P42336 [H1047Y]; assay: Inhibition of PIK3CA H1047Y mutant (unknown origin) assessed as residual activity at 1000 nM by KINOMEscan analysis relative to control
Homo sapiens = species: Homo sapiens; assay: Inhibition of JNK3 (unknown origin) assessed as residual activity at 1000 nM by KINOMEscan analysis relative to control
[8] = molecular target: Homeodomain-interacting protein kinase 3 (Homo sapiens) (UniProt Q9H422); assay: Inhibition of HIPK3 (unknown origin) assessed as residual activity at 1000 nM by KINOMEscan analysis relative to control
[9] = molecular target: Cyclin-dependent kinase 14 (Homo sapiens) (UniProt O94921); assay: Inhibition of PFTK1 (unknown origin) assessed as residual activity at 1000 nM by KINOMEscan analysis relative to control
[10] = system: ALK tyrosine kinase receptor (Homo sapiens), Q9UM73 [L1196M]; assay: Inhibition of ALK L1196M mutant (unknown origin) assessed as residual activity at 1000 nM by KINOMEscan analysis relative to control
[11] = system: Mast/stem cell growth factor receptor Kit (Homo sapiens), P10721 [V559D,T670I]; assay: Inhibition of KIT V559D/T670I mutant (unknown origin) assessed as residual activity at 1000 nM by KINOMEscan analysis relative to control
[12] = molecular target: T3, Serine/threonine-protein kinase Sgk1 (Homo sapiens) (UniProt O00141); assay: Inhibition of SGK (unknown origin) assessed as residual activity at 1000 nM by KINOMEscan analysis relative to control
T3 sequence (whole entry): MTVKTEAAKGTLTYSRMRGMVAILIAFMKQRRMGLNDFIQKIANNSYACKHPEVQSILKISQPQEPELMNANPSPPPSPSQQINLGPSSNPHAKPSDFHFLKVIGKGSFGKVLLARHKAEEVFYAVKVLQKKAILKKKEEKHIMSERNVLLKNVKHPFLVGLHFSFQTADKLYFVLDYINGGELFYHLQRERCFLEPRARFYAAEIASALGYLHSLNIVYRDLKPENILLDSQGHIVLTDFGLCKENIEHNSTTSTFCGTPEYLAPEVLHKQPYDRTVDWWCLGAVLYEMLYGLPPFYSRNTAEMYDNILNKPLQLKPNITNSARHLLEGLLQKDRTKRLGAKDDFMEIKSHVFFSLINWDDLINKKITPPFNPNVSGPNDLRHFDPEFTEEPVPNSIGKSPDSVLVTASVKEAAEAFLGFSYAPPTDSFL

Chain of Wee1-like protein kinase (Homo sapiens) (P30291 whole entry, looked up): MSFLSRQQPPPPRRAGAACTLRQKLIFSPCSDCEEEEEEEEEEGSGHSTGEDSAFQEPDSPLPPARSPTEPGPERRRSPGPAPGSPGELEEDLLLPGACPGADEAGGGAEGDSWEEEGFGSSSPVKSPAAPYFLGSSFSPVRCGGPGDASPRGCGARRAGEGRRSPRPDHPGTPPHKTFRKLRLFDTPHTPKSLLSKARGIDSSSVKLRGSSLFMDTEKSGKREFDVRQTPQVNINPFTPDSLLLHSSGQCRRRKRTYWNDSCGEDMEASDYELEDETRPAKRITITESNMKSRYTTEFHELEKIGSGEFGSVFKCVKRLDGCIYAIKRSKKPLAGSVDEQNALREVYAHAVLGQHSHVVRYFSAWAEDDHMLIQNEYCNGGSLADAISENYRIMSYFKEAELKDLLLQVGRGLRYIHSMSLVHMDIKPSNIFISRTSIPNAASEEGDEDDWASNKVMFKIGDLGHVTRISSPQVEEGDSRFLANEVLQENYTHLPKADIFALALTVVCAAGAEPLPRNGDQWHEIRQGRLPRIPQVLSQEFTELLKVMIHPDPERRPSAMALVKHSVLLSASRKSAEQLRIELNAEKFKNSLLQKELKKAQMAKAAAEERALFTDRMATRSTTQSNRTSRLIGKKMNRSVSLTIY
Chain of Mast/stem cell growth factor receptor Kit (Homo sapiens), P10721 [V559D,T670I] (P10721 whole entry V559D/T670I): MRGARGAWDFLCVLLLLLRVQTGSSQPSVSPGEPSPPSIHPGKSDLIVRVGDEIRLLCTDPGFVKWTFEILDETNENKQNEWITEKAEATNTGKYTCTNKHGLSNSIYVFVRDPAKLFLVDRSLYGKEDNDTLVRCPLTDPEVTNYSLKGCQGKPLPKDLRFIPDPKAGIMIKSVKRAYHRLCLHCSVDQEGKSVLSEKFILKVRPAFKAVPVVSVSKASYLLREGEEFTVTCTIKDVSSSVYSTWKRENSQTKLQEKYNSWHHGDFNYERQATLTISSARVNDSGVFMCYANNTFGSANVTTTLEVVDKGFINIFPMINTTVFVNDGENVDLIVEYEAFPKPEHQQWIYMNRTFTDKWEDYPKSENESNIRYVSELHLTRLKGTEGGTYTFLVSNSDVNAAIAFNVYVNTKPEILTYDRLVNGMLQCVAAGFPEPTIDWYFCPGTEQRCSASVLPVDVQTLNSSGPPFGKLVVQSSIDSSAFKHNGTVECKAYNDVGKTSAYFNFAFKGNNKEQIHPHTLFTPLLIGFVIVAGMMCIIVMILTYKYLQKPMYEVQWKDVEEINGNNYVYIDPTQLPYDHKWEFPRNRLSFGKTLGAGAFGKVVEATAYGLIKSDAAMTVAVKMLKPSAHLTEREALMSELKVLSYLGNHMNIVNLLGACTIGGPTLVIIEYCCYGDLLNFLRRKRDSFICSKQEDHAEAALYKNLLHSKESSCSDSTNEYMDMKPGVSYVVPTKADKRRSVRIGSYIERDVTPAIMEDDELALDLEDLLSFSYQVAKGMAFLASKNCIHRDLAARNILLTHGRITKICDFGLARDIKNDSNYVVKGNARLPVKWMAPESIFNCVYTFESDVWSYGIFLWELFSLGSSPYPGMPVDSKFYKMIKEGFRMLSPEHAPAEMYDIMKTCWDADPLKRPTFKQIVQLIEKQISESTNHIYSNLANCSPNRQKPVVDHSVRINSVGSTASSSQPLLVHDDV
Chain of STE20-like serine/threonine-protein kinase (Homo sapiens) (Q9H2G2 whole entry, looked up): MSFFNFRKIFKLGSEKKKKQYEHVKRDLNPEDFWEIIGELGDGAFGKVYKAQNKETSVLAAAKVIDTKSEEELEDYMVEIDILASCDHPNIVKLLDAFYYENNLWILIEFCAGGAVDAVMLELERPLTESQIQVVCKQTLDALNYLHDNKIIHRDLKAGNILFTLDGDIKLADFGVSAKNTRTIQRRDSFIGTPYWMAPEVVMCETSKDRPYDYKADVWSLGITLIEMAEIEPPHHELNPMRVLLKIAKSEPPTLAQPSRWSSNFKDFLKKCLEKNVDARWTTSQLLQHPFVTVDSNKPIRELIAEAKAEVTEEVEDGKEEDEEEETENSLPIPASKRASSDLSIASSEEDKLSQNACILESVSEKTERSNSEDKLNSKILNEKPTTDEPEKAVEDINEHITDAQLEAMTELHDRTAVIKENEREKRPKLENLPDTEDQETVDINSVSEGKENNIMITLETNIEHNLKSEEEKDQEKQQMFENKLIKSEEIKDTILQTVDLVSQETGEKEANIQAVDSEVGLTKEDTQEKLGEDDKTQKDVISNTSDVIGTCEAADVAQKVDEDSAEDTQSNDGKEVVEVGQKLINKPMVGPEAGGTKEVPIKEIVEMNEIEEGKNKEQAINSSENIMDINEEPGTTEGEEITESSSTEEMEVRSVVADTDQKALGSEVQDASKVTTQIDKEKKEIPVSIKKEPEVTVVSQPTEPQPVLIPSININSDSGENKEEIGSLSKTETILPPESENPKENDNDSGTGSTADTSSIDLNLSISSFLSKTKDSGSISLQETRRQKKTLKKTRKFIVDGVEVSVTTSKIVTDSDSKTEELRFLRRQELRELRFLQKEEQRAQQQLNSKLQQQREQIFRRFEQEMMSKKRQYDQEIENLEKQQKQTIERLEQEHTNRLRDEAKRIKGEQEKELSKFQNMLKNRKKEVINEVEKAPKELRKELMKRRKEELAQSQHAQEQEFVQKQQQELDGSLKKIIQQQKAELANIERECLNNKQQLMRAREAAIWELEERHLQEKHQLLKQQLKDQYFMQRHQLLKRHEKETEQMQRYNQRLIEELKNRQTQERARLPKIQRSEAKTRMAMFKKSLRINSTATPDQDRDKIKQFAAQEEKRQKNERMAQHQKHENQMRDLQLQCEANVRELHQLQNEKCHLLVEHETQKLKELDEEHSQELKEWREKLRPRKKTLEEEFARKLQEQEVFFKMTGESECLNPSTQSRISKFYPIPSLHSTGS
Chain of Tyrosine-protein kinase HCK (Homo sapiens) (P08631 2-526 limits assumed): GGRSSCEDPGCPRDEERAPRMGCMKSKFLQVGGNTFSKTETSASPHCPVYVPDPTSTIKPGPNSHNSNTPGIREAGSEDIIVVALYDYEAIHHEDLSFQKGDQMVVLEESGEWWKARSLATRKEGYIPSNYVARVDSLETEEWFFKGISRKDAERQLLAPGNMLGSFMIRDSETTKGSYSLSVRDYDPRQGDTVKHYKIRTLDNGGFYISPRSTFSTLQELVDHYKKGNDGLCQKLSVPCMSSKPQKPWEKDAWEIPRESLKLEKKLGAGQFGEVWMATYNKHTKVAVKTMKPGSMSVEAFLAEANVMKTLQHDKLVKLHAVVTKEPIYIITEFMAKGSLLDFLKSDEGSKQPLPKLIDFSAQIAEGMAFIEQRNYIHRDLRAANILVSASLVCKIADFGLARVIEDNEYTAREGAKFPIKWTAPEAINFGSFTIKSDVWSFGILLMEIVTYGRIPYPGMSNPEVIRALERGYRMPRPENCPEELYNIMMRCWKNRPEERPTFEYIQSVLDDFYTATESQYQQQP
Chain of Cyclin-dependent kinase 14 (Homo sapiens) (O94921 whole entry): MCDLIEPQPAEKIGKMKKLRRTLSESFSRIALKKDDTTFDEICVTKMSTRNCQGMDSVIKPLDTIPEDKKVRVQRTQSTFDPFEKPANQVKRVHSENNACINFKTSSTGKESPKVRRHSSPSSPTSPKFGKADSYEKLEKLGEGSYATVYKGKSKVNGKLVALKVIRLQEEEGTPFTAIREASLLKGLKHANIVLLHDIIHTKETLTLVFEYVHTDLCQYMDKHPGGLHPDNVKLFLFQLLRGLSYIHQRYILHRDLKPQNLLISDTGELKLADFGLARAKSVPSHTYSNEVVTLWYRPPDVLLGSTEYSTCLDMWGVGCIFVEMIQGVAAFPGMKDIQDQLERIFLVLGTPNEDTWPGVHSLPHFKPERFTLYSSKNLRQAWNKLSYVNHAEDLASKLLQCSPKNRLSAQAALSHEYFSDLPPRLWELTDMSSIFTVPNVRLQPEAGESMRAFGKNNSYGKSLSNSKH
Chain of Homeodomain-interacting protein kinase 3 (Homo sapiens) (Q9H422 whole entry, looked up): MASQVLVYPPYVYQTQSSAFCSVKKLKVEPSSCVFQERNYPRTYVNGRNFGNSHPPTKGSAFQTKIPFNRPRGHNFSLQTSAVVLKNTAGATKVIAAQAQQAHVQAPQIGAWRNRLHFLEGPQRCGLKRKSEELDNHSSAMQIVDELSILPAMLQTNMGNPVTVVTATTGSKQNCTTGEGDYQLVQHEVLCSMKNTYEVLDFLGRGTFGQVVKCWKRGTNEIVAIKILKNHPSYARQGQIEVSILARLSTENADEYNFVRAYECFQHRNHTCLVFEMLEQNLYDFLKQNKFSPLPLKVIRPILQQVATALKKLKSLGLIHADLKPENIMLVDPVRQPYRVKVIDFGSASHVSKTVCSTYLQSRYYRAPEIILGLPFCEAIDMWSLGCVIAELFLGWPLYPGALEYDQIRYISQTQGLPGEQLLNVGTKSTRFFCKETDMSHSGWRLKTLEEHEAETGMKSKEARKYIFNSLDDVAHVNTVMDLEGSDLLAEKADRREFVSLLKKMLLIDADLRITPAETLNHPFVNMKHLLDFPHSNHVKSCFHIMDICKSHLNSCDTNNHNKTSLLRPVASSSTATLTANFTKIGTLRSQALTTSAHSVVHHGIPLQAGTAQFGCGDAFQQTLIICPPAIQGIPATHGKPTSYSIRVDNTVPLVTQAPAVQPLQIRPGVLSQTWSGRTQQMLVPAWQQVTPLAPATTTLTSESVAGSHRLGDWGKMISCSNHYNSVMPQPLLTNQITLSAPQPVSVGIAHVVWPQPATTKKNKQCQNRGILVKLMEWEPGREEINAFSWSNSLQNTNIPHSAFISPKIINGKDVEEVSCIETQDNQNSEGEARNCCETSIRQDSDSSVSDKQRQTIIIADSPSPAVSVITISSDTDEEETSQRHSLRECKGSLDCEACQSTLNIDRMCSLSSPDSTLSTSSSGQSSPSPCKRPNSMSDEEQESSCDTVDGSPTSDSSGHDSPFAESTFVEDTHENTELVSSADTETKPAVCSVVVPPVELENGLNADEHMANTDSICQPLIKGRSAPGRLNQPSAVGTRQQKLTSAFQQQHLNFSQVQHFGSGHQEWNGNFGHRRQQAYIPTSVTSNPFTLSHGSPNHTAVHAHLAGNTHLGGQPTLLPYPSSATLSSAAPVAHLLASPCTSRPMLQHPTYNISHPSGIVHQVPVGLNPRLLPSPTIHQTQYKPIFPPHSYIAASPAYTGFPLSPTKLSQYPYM

Row | Compound | Activity [1] [%] | Activity [2] [%] | Activity [3] [%] | Activity [4] [%] | Activity [5] [%] | Activity [6] [%] | Activity [7] [%] | Activity (Homo sapiens) [%] | Activity [8] [%] | Activity [9] [%] | Activity [10] [%] | Activity [11] [%] | Activity [12] [%]
1 | COc1cc2nc(C)nc(N[C@H](C)c3cccc(-c4cn[nH]c4)c3)c2cc1OC | 77 | 77 | 84 | 61 | 88 | 84 | 63 | 80 | 69 | 93 | 67 | 92 | 74
2 | COc1cc2ncnc(N[C@H](C)c3cccc4ccccc34)c2cc1OC | 93 | 96 | 100 | 84 | 66 | 100 | 89 | 97 | 88 | 100 | 80 | 73 | 11
